# Data as given in US10087166B2, “Cyclic amine azaheterocyclic carboxamides” (Merck Patent GmbH, priority 2010, dated 2018).
# Biological target: T1, P70S6K (Homo sapiens, UniProt P23443, T412E)
# T1 construct: purchased Millipore
# Assay: P70S6K enzyme assay
# Type: biochemical
# Conditions: P70S6K T412E mutant 3 nM, 24 μM ATP, FITC-AHA-AKRRRLSSLRA-OH substrate, 90 min at 25° C.; read-out: IC50p70S6K
# Method: P70S6K inhibitor compounds are diluted and plated in 96 well plates. A reaction mixture including the following components is then added to the compound plate to initiate the enzyme reaction; P70S6K (3 nM, T412E mutant, Millipore) is mixed with 24 μM ATP in an assay buffer containing 100 mM Hepes (pH 7.5), 5 mM MgCl2, 1 mM DTT, 0.015% Brij and 1 μM of the substrate peptide FITC-AHA-AKRRRLSSLRA-OH (derived from the S6 ribosomal protein sequence, FITC=fluorescein isothiocyanate, AHA=6-aminohexanoic acid). The reaction is incubated for 90 min at 25° C., before the addition of 10 mM EDTA to stop the reaction. The proportion of substrate and product (phosphorylated) peptide is analyzed on a Caliper Life Sciences Lab Chip 3000, using a pressure of −1.4 psi, and upstream and downstream voltages of −3000 and −700 respectively. Product peaks are resolved before substrate peaks on the resulting chromatograms.
# To assess the inhibitory potential of the compounds, IC50-values were determined, as shown in Chemical Synthesis section above.
# T1 sequence (P23443 whole entry T412E): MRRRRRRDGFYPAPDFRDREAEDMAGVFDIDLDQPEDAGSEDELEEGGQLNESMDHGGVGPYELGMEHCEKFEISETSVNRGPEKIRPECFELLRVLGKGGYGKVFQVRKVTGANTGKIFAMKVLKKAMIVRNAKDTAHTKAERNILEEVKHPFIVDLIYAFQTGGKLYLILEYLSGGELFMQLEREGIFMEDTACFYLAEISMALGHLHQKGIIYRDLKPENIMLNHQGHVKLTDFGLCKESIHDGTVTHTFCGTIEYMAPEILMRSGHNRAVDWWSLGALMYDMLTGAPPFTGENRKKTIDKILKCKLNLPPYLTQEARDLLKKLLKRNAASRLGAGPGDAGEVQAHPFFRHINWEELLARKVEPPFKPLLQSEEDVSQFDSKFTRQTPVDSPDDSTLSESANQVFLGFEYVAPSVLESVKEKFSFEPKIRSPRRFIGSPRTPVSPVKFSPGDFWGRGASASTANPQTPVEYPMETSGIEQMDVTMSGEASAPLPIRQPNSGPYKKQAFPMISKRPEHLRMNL
row,SMILES,IC50 [nM]
1,"NC(=O)c1cccc2c(NC3CNCC3c3cccc(F)c3)ccnc12 (centres unmarked) [compound 21, 4-((4-(3-fluorophenyl)pyrrolidin-3-yl)amino)quinoline-8-carboxamide]",13
2,"NC(=O)c1cccc2c(NC3CNCC3c3ccccc3F)ccnc12 (centres unmarked) [compound 22, 4-((4-(2-fluorophenyl)pyrrolidin-3-yl)amino)quinoline-8-carboxamide]",9.4
3,"COc1ccccc1C1CNCC1Nc1ccnc2c(C(N)=O)cccc12 (centres unmarked) [compound 23, 4-((4-(2-methoxyphenyl)pyrrolidin-3-yl)amino)quinoline-8-carboxamide]",46
4,"NC(=O)c1cccc2c(N[C@@H]3CNC[C@H]3c3cc(F)cc(C(F)(F)F)c3)ncnc12 [compound 46, 4-(((3S,4R)-4-(3-fluoro-5-(trifluoromethyl)phenyl)pyrrolidin-3-yl)amino)quinazoline-8-carboxamide]",2.6
5,"NC(=O)c1cccc2c(N[C@H]3CNC[C@@H]3c3cc(F)cc(C(F)(F)F)c3)ncnc12 [compound 47, 4-(((3R,4S)-4-(3-fluoro-5-(trifluoromethyl)phenyl)pyrrolidin-3-yl)amino)quinazoline-8-carboxamide]",160
6,"NC(=O)c1cccc2c(N[C@@H]3CNC[C@H]3c3cccc(C(F)(F)F)c3)ncnc12 [compound 49, 4-(((3S,4R)-4-(3-(trifluoromethyl)phenyl)pyrrolidin-3-yl)amino)quinazoline-8-carboxamide]",60
7,"NC(=O)c1cccc2c(N[C@H]3CNC[C@@H]3c3cccc(C(F)(F)F)c3)ncnc12 [compound 50, 4-(((3R,4S)-4-(3-(trifluoromethyl)phenyl)pyrrolidin-3-yl)amino)quinazoline-8-carboxamide]",3
8,"NC(=O)c1cccc2c(N[C@H]3CNC[C@@H]3c3ccc(C(F)(F)F)cc3)ncnc12 [compound 53, 4-(((3R,4S)-4-(4-(trifluoromethyl)phenyl)pyrrolidin-3-yl)amino)quinazoline-8-carboxamide]",66
9,"NC(=O)c1cccc2c(N[C@H]3CNC[C@H]3c3ccc(C(F)(F)F)cc3)ncnc12 [compound 54, 4-(((3R,4R)-4-(4-(trifluoromethyl)phenyl)pyrrolidin-3-yl)amino)quinazoline-8-carboxamide]",1.3
10,NC(=O)c1cccc2c(N[C@H]3CNC[C@@H]3c3cccc(OC(F)(F)F)c3)ncnc12 [compound 57],2.1
11,"NC(=O)c1cccc2c(N[C@H]3CNC[C@H]3c3cccc(OC(F)(F)F)c3)ncnc12 [compound 58, 4-(((3R,4R)-4-(3-(trifluoromethoxy)phenyl)pyrrolidin-3-yl)amino)quinazoline-8-carboxamide]",0.98
12,"NC(=O)c1cccc2c(N[C@H]3CNC[C@@H]3c3ccc(OC(F)(F)F)cc3)ncnc12 [compound 60, 4-(((3R,4S)-4-(4-(trifluoromethoxy)phenyl)pyrrolidin-3-yl)amino)quinazoline-8-carboxamide]",120
13,"NC(=O)c1cccc2c(N[C@@H]3CNC[C@H]3c3ccc(OC(F)(F)F)cc3)ncnc12 [compound 61, 4-(((3S,4R)-4-(4-(trifluoromethoxy)phenyl)pyrrolidin-3-yl)amino)quinazoline-8-carboxamide]",1.5
14,"COc1ccc([C@@H]2CNC[C@H]2Nc2ncnc3c(C(N)=O)cccc23)cc1F [compound 62, 4-(((3S,4R)-4-(3-fluoro-4-methoxyphenyl)pyrrolidin-3-yl)amino)quinazoline-8-carboxamide]",1.5
15,"COc1ccc([C@H]2CNC[C@@H]2Nc2ncnc3c(C(N)=O)cccc23)cc1F [compound 63, 4-(((3R,4S)-4-(3-fluoro-4-methoxyphenyl)pyrrolidin-3-yl)amino)quinazoline-8-carboxamide]",810
16,"NC(=O)c1cccc2c(N[C@H]3CNC[C@@H]3c3ccccc3Cl)ncnc12 [compound 65, 4-(((3R,4S)-4-(2-chlorophenyl)pyrrolidin-3-yl)amino)quinazoline-8-carboxamide]",340
17,"NC(=O)c1cccc2c(N[C@@H]3CNC[C@H]3c3ccccc3Cl)ncnc12 [compound 66, 4-(((3S,4R)-4-(2-chlorophenyl)pyrrolidin-3-yl)amino)quinazoline-8-carboxamide]",1.4
18,"Cc1nc(N[C@H]2CNC[C@@H]2c2cccc(F)c2)c2cccc(C(N)=O)c2n1 [compound 83, 4-(((3R,4S)-4-(3-fluorophenyl)pyrrolidin-3-yl)amino)-2-methylquinazoline-8-carboxamide]",160
19,"Cc1nc(N[C@@H]2CNC[C@H]2c2cccc(F)c2)c2cccc(C(N)=O)c2n1 [compound 84, 4-(((3S,4R)-4-(3-fluorophenyl)pyrrolidin-3-yl)amino)-2-methylquinazoline-8-carboxamide]",1.7
20,"N#Cc1cccc([C@H]2CNC[C@@H]2Nc2ncnc3c(C(N)=O)cccc23)c1 [compound 87, 4-(((3R,4S)-4-(3-cyanophenyl)pyrrolidin-3-yl)amino)quinazoline-8-carboxamide]",81
21,"N#Cc1cccc([C@@H]2CNC[C@H]2Nc2ncnc3c(C(N)=O)cccc23)c1 [compound 88, 4-(((3S,4R)-4-(3-cyanophenyl)pyrrolidin-3-yl)amino)quinazoline-8-carboxamide]",2.4
22,"NC(=O)c1cccc2c(N[C@H]3CNC[C@@H]3c3ccc4c(c3)CCO4)ncnc12 [compound 90, 4-(((3R,4S)-4-(2,3-dihydrobenzofuran-5-yl)pyrrolidin-3-yl)amino)quinazoline-8-carboxamide]",4
23,"NC(=O)c1cccc2c(N[C@@H]3CNC[C@H]3c3ccc4c(c3)CCO4)ncnc12 [compound 91, 4-(((3S,4R)-4-(2,3-dihydrobenzofuran-5-yl)pyrrolidin-3-yl)amino)quinazoline-8-carboxamide]",53
24,"Cc1c(F)cccc1[C@H]1CNC[C@@H]1Nc1ncnc2c(C(N)=O)cccc12 [compound 93, 4-(((3R,4S)-4-(3-fluoro-2-methylphenyl)pyrrolidin-3-yl)amino)quinazoline-8-carboxamide]",1.2
25,"Cc1c(F)cccc1[C@@H]1CNC[C@H]1Nc1ncnc2c(C(N)=O)cccc12 [compound 94, 4-(((3S,4R)-4-(3-fluoro-2-methylphenyl)pyrrolidin-3-yl)amino)quinazoline-8-carboxamide]",52

# The remaining lines, values ahead:
row,IC50 [nM],SMILES
1,1.54,"NC(=O)c1cccc2c(N[C@@H]3CNC[C@H]3c3cccc(F)c3)ncnc12 [compound 67, 4-(((3S,4R)-4-(3-fluorophenyl)pyrrolidin-3-yl)amino)quinazoline-8-carboxamide]"
2,48,"NC(=O)c1cccc2c(N[C@H]3CNC[C@@H]3c3cccc(F)c3)ncnc12 [compound 68, 4-(((3R,4S)-4-(3-fluorophenyl)pyrrolidin-3-yl)amino)quinazoline-8-carboxamide]"
3,3.3,"NC(=O)c1cccc2c(N[C@H]3CNC[C@@H]3c3ccc4ncccc4c3)ncnc12 [compound 70, 4-(((3R,4S)-4-(quinolin-6-yl)pyrrolidin-3-yl)amino)quinazoline-8-carboxamide]"
4,62,"NC(=O)c1cccc2c(N[C@@H]3CNC[C@H]3c3ccc4ncccc4c3)ncnc12 [compound 71, 4-(((3S,4R)-4-(quinolin-6-yl)pyrrolidin-3-yl)amino)quinazoline-8-carboxamide]"
5,360,"COc1cccc([C@H]2CNC[C@@H]2Nc2ncnc3c(C(N)=O)cccc23)c1 [compound 72, 4-(((3R,4S)-4-(3-methoxyphenyl)pyrrolidin-3-yl)amino)quinazoline-8-carboxamide]"
6,6.4,"COc1cccc([C@@H]2CNC[C@H]2Nc2ncnc3c(C(N)=O)cccc23)c1 [compound 73, 4-(((3S,4R)-4-(3-methoxyphenyl)pyrrolidin-3-yl)amino)quinazoline-8-carboxamide]"
7,64,"Cc1cc([C@H]2CNC[C@@H]2Nc2ncnc3c(C(N)=O)cccc23)ccc1F [compound 75, 4-(((3R,4S)-4-(4-fluoro-3-methylphenyl)pyrrolidin-3-yl)amino)quinazoline-8-carboxamide]"
8,3.4,"Cc1cc([C@@H]2CNC[C@H]2Nc2ncnc3c(C(N)=O)cccc23)ccc1F [compound 76, 4-(((3S,4R)-4-(4-fluoro-3-methylphenyl)pyrrolidin-3-yl)amino)quinazoline-8-carboxamide]"
9,1.2,"NC(=O)c1cccc2c(N[C@@H]3CNC[C@H]3c3cccc4ccccc34)ncnc12 [compound 79, 4-(((3S,4R)-4-(naphthalen-1-yl)pyrrolidin-3-yl)amino)quinazoline-8-carboxamide]"
10,24,"NC(=O)c1cccc2c(N[C@H]3CNC[C@@H]3c3ccc4ccccc4c3)ncnc12 [compound 80, 4-(((3R,4S)-4-(naphthalen-2-yl)pyrrolidin-3-yl)amino)quinazoline-8-carboxamide]"
11,48,"NC(=O)c1cccc2c(N[C@H]3CNC[C@@H]3c3cccc(Cl)c3)ncnc12 [compound 95, 4-(((3R,4S)-4-(3-chlorophenyl)pyrrolidin-3-yl)amino)quinazoline-8-carboxamide]"
12,4.1,"COc1ccc([C@@H]2CNC[C@H]2Nc2ncnc3c(C(N)=O)cccc23)cc1 [compound 96, 4-(((3S,4R)-4-(4-methoxyphenyl)pyrrolidin-3-yl)amino)quinazoline-8-carboxamide]"
13,81,"COc1ccc([C@H]2CNC[C@@H]2Nc2ncnc3c(C(N)=O)cccc23)cc1 [compound 97, 4-(((3R,4S)-4-(4-methoxyphenyl)pyrrolidin-3-yl)amino)quinazoline-8-carboxamide]"
